The values below come from patent US20100158858A1, “ADMINISTRATION OF CARBOLINE DERIVATIVES USEFUL IN THE TREATMENT OF CANCER AND OTHER DISEASES” (priority 2007, published 2010).

This data set relates to MCF-7 breast cancer cells transfected with the human aromatase gene. The note with it: for Mean % Inhibition of Tumor Size vs Vehicle at Day 42 / Mean Tumor Size at Day 98 / Mice cured / Mice dead / Mice with Escape to 500 mm^3 / Percent of mice with cures: letrazole only. Here is the method:
The relative effects of the aromatase inhibitor agent letrozole and a test compound of the present invention were evaluated, when administered alone or in combination, on the in vivo growth of MCF-7 breast cancer cells transfected with the human aromatase gene.
In this study, cells (7.0×10^6 cells/mouse) were implanted subcutaneously in female ovariectomized athymic nude mice (n=10). Androstenedione was administered (via slow-release pellets) as a source of […].
The daily dose was administered in a target volume of 0.1 mL, which was adjusted according to subject weight. The oral vehicle was L21 (a mixture of 35% Labrasol, 35% Labrafac, and 30% Solutol). Individual vehicle-treated mice were removed from study when the tumor reached 1500 mm^3. After 100 days of treatment, treatment was stopped.

[1] abbreviates: 10 μg/mouse orally once per day.
Setting [2] is: 30 μg/mouse orally once per day.

Read-outs that look alike come from different tables or passages of the source. Marks after values point to notes of the source that are not given here.

With `N#Cc1ccc(C(c2ccc(C#N)cc2)n2cncn2)cc1` [letrozole], under setting [1], the “Mean % Inhibition of Tumor Size vs Vehicle at Day 42” value is 72%, the “Mean Tumor Size at Day 98” value is 225 mm^3, the Mice cured is recorded as 0 of 9 and the Mice dead is listed as 1. Also, under setting [1], the “Mice with Escape to 500 mm^3” value came out at 2 and the “Percent of mice with cures” value turned out to be 0% cured. Under setting [2], the “Mean % Inhibition of Tumor Size vs Vehicle at Day 42” value turned out to be 91%**, the “Mean Tumor Size at Day 98” value is given as 146 mm^3, the Mice cured is 2 of 9 and the Mice dead is listed as 1. Under setting [2], the “Mice with Escape to 500 mm^3” value is reported as 0 and the “Percent of mice with cures” value is reported as 22% cured. Further, the “Effect on tumor growth” value (letrozole (10 μg/mouse) alone) is listed as “the tumors did not regress, tumor growth was prevented”. Further, for the setting “letrozole (30 μg/mouse) alone”, the “Effect on tumor growth” value is recorded as “the tumors regressed” and the “Mice with cures (no measurable tumor) at Day 100” value was “two of the nine”.
